≈ marks a conversion by molar mass, not a printed value. Calls of active or inactive are those of the source. The rule behind the calls is not given here.
Legend:
Staphylococcus aureus [1] = assay: Antibacterial activity against Staphylococcus aureus T991 by Etest method; format: functional
Staphylococcus aureus [2] = assay: Antibacterial activity against Staphylococcus aureus T2019 with G2576T mutation in 23S rRNA genes by Etest method; format: functional
Staphylococcus aureus [3] = assay: Antibacterial activity against Staphylococcus aureus T991 by disc diffusion method; format: functional, organism-based
Staphylococcus aureus [4] = assay: Antibacterial activity against Staphylococcus aureus T2019 with G2576T mutation in 23S rRNA genes by disc diffusion method; format: functional, organism-based
Staphylococcus aureus [5] = assay: Antibacterial activity against Staphylococcus aureus T1900 expressing 23S rrn3 G2576T, rrn4 G2576T and rrn5 G2576T mutants by Etest method; format: functional
Staphylococcus aureus [6] = assay: Antibacterial activity against Staphylococcus aureus T1888 expressing 23S rrn 3 G2576T and rrn 5 G2576T mutants by Etest method; format: functional
Staphylococcus aureus [7] = assay: Antibacterial activity against Staphylococcus aureus T2019 expressing 23S rrn1 G2576T, rrn2 G2576T, rrn3 G2576T, rrn4 G2576T and rrn5 G2576T mutants by Etest method; format: functional
Staphylococcus aureus [8] = assay: Antibacterial activity against Staphylococcus aureus T2019/50 expressing 23S rrn1 G2576T, rrn3 G2576T, rrn4 G2576T and rrn5 G2576T mutants by Etest method; format: functional
Staphylococcus aureus [9] = assay: Antibacterial activity against Staphylococcus aureus T1910 expressing 23S rrn2 G2576T, rrn3 G2576T, rrn4 G2576T and rrn5 G2576T mutants by Etest method; format: functional

Compound: GENTAMICIN
- MIC (Staphylococcus aureus [1]): 256 µg/mL
- MIC (Staphylococcus aureus [2]): 256 µg/mL

Compound: C[C@H]1c2cccc(O)c2C(=O)C2=C(O)[C@]3(O)C(=O)C(C(N)=O)=C(O)[C@@H](N(C)C)[C@@H]3[C@@H](O)[C@@H]21.O [DOXYCYCLINE]
- MIC (Staphylococcus aureus [1]): 6 µg/mL
- MIC (Staphylococcus aureus [2]): 6 µg/mL

Compound: CCC[C@@H]1C[C@@H](C(=O)N[C@@H]([C@H]2O[C@H](SC)[C@H](O)[C@@H](O)[C@H]2O)[C@H](C)Cl)N(C)C1 [CLINDAMYCIN]
- MIC (Staphylococcus aureus [1]): > 256 µg/mL
- MIC (Staphylococcus aureus [2]): > 256 µg/mL

Compound: O=C(N[C@H](CO)[C@H](O)c1ccc([N+](=O)[O-])cc1)C(Cl)Cl
- Activity (Staphylococcus aureus [3]): Active
- MIC (Staphylococcus aureus [4]): inactive

Compound: CC(=O)NC[C@H]1CN(c2ccc(N3CCOCC3)c(F)c2)C(=O)O1 [LINEZOLID]
- MIC (Staphylococcus aureus [5]): 32 µg/mL (≈ 94.9 µM)
- MIC (Staphylococcus aureus [1]): 1 µg/mL (≈ 2.96 µM)
- MIC (Staphylococcus aureus [6]): 8 µg/mL (≈ 23.7 µM)
- MIC (Staphylococcus aureus [2]): 128 µg/mL (≈ 379 µM)
- MIC (Staphylococcus aureus [7]): 128 µg/mL (≈ 379 µM)
- MIC (Staphylococcus aureus [8]): 64 µg/mL (≈ 190 µM)
- MIC (Staphylococcus aureus [9]): 64 µg/mL (≈ 190 µM)

Compound: CC(=O)O[C@H]1C[C@@]2(C)[C@@H](C[C@@H](O)[C@H]3[C@@]4(C)CC[C@@H](O)[C@@H](C)[C@@H]4CC[C@@]32C)/C1=C(\CCC=C(C)C)C(=O)O [FUSIDIC ACID]
- MIC (Staphylococcus aureus [1]): 0.19 µg/mL (≈ 0.368 µM)
- MIC (Staphylococcus aureus [2]): 0.5 µg/mL (≈ 0.968 µM)

Compound: CN(C)c1cc(NC(=O)CNC(C)(C)C)c(O)c2c1C[C@H]1C[C@H]3[C@H](N(C)C)C(O)=C(C(N)=O)C(=O)[C@@]3(O)C(O)=C1C2=O [TIGECYCLINE]
- MIC (Staphylococcus aureus [1]): 1 µg/mL (≈ 1.71 µM)
- MIC (Staphylococcus aureus [2]): 0.75 µg/mL (≈ 1.28 µM)

Compound: CC[C@H]1OC(=O)[C@H](C)[C@@H](O[C@H]2C[C@@](C)(OC)[C@@H](O)[C@H](C)O2)[C@H](C)[C@@H](O[C@@H]2O[C@H](C)C[C@H](N(C)C)[C@H]2O)[C@](C)(O)C[C@@H](C)C(=O)[C@H](C)[C@@H](O)[C@]1(C)O [ERYTHROMYCIN]
- MIC (Staphylococcus aureus [1]): > 256 µg/mL
- MIC (Staphylococcus aureus [2]): > 256 µg/mL
